# According to paper PMC8571282 (Nature Communications, 2021):
# Where two headings read alike, the source gives them in different places.
# How the values were obtained:
# [1] = tested on: SARS-CoV-2 VOC γ (BZ/2021); format: in vivo, ferret (Mustela putorius furo)
# [2] = tested on: SARS-CoV-2 SA/2020 (β, lineage B.1.351); experiment: microbe, parasite or virus in culture; format: cell-based; settings: Severe acute respiratory syndrome coronavirus 2, Vero C1008; SA/2020, VeroE6, mean n=3
# [3] = format: in vivo, ferret (Mustela putorius furo); settings: b.i.d.; for Bodyweight, Mean 2 (treated group) / Bodyweight, Mean Diff. (Vehicle vs. treated): Fig 3e; for Temperature, Mean 2 (treated group) / Temperature, Mean Diff. (Vehicle vs. treated): Fig 3d
# in vitro = settings: male, human, % cell viability, M6 HAE, 0.046 µM
# SARS-CoV-2 WA1/2020 = format: in vivo, ferret (Mustela putorius furo); settings: Fig 3b, b.i.d. Further: unit not given here.
smiles,measurement,setting,value
CC(C)C(=O)OCC1OC(C#N)(c2ccc3c(N)ncnn23)C(OC(=O)C(C)C)C1OC(=O)C(C)C (stereo not drawn) [GS-621763],SARS-CoV-2 RNA copies in lungs of contacts (Fig 4G),[1]; Contact - GS-621763,not detected
same,"Nasal turbinate RNA, Mean Diff. GS-621763 vs. Contact - GS-621763","[1]; Fig 4e, […], 10 mg/kg b.i.d.",0.9216
same,"Nasal turbinate RNA, Mean Diff. GS-621763 vs. Contact - Vehicle","[1]; Fig 4e, […], 10 mg/kg b.i.d.",-3.233
same,"Nasal turbinate RNA, group mean of Contact - GS-621763 (Transform of Brazil - Nasal Turbinate RNA)","[1]; Fig 4e, […], contacts of GS-621763-treated source animals",4.287
same,"Turbinate titers, Mean Diff. GS-621763 vs. Contact - GS-621763","[1]; Fig 4d, […], 10 mg/kg b.i.d.",0
same,"Turbinate titers, Mean Diff. GS-621763 vs. Contact - Vehicle","[1]; Fig 4d, […], 10 mg/kg b.i.d.",-3.824
same,"Turbinate titers, group mean of Contact - GS-621763 (Transform of Brazil - Turbinate Titers)","[1]; Fig 4d, […], contacts of GS-621763-treated source animals",0.9542
same,Infectious virus titer in nasal lavage of contacts (Fig 4B),[1]; in vivo,5 pfu
same,"Nasal turbinate RNA, Mean Diff. Contact - Vehicle vs. Contact - GS-621763",[1]; in vivo,4.155
same,"Nasal turbinate RNA, Mean Diff. Vehicle vs. Contact - GS-621763",[1]; in vivo,4.881
same,"Turbinate titers, Mean Diff. Contact - Vehicle vs. Contact - GS-621763",[1]; in vivo,3.824
same,"Turbinate titers, Mean Diff. Vehicle vs. Contact - GS-621763",[1]; in vivo,3.511
same,viral RNA in nasal turbinates of contact animals of treated source ferrets,[1]; in vivo,< 10^5 copies/g nasal turbinate
same,virus transmission to untreated direct-contact animals,[1]; in vivo,completely blocked virus transmission
same,EC50,[2],110 nM
same,"Bodyweight, Mean 2 (treated group)","[3]; Row 1 (time), 3 mg/kg",100
same,"Bodyweight, Mean Diff. (Vehicle vs. treated)","[3]; Row 1 (time), 3 mg/kg",0
same,"Bodyweight, Mean 2 (treated group)","[3]; Row 1 (time), 10 mg/kg",100
same,"Bodyweight, Mean Diff. (Vehicle vs. treated)","[3]; Row 1 (time), 10 mg/kg",0
same,"Bodyweight, Mean 2 (treated group)","[3]; Row 2 (time), 3 mg/kg",98.83
same,"Bodyweight, Mean Diff. (Vehicle vs. treated)","[3]; Row 2 (time), 3 mg/kg",1.898
same,"Bodyweight, Mean 2 (treated group)","[3]; Row 2 (time), 10 mg/kg",104.7
same,"Bodyweight, Mean Diff. (Vehicle vs. treated)","[3]; Row 2 (time), 10 mg/kg",-3.948
same,"Bodyweight, Mean 2 (treated group)","[3]; Row 3 (time), 3 mg/kg",102.4
same,"Bodyweight, Mean Diff. (Vehicle vs. treated)","[3]; Row 3 (time), 3 mg/kg",-1.11
same,"Bodyweight, Mean 2 (treated group)","[3]; Row 3 (time), 10 mg/kg",103.7
same,"Bodyweight, Mean Diff. (Vehicle vs. treated)","[3]; Row 3 (time), 10 mg/kg",-2.374
same,"Bodyweight, Mean 2 (treated group)","[3]; Row 4 (time), 3 mg/kg",104.1
same,"Bodyweight, Mean Diff. (Vehicle vs. treated)","[3]; Row 4 (time), 3 mg/kg",-1.927
same,"Bodyweight, Mean 2 (treated group)","[3]; Row 4 (time), 10 mg/kg",106.9
same,"Bodyweight, Mean Diff. (Vehicle vs. treated)","[3]; Row 4 (time), 10 mg/kg",-4.724
same,"Bodyweight, Mean 2 (treated group)","[3]; Row 5 (time), 3 mg/kg",105.2
same,"Bodyweight, Mean Diff. (Vehicle vs. treated)","[3]; Row 5 (time), 3 mg/kg",-2.7
same,"Bodyweight, Mean 2 (treated group)","[3]; Row 5 (time), 10 mg/kg",107.9
same,"Bodyweight, Mean Diff. (Vehicle vs. treated)","[3]; Row 5 (time), 10 mg/kg",-5.412
same,"Temperature, Mean 2 (treated group)","[3]; Row 1 (time), 3 mg/kg",38.95
same,"Temperature, Mean Diff. (Vehicle vs. treated)","[3]; Row 1 (time), 3 mg/kg",0.2
same,"Temperature, Mean 2 (treated group)","[3]; Row 1 (time), 10 mg/kg",38.53
same,"Temperature, Mean Diff. (Vehicle vs. treated)","[3]; Row 1 (time), 10 mg/kg",0.625
same,"Temperature, Mean 2 (treated group)","[3]; Row 2 (time), 3 mg/kg",38.75
same,"Temperature, Mean Diff. (Vehicle vs. treated)","[3]; Row 2 (time), 3 mg/kg",-0.075
same,"Temperature, Mean 2 (treated group)","[3]; Row 2 (time), 10 mg/kg",39.03
same,"Temperature, Mean Diff. (Vehicle vs. treated)","[3]; Row 2 (time), 10 mg/kg",-0.35
same,"Temperature, Mean 2 (treated group)","[3]; Row 3 (time), 3 mg/kg",38.78
same,"Temperature, Mean Diff. (Vehicle vs. treated)","[3]; Row 3 (time), 3 mg/kg",-0.1
same,"Temperature, Mean 2 (treated group)","[3]; Row 3 (time), 10 mg/kg",38.85
same,"Temperature, Mean Diff. (Vehicle vs. treated)","[3]; Row 3 (time), 10 mg/kg",-0.175
same,"Temperature, Mean 2 (treated group)","[3]; Row 4 (time), 3 mg/kg",38.93
same,"Temperature, Mean Diff. (Vehicle vs. treated)","[3]; Row 4 (time), 3 mg/kg",-0.275
same,"Temperature, Mean 2 (treated group)","[3]; Row 4 (time), 10 mg/kg",38.73
same,"Temperature, Mean Diff. (Vehicle vs. treated)","[3]; Row 4 (time), 10 mg/kg",-0.075
same,"Temperature, Mean 2 (treated group)","[3]; Row 5 (time), 3 mg/kg",38.73
same,"Temperature, Mean Diff. (Vehicle vs. treated)","[3]; Row 5 (time), 3 mg/kg",-0.15
same,"Temperature, Mean 2 (treated group)","[3]; Row 5 (time), 10 mg/kg",38.2
same,"Temperature, Mean Diff. (Vehicle vs. treated)","[3]; Row 5 (time), 10 mg/kg",0.375
same,"viability at 72 h, 0.046 µM",in vitro,92%
same,"Transform of Nasal lavage titer, Mean 2 (treated group)","SARS-CoV-2 WA1/2020; Day 0, 3 mg/kg",0.699
same,"Transform of Nasal lavage titer, Mean Diff. (Vehicle vs. treated)","SARS-CoV-2 WA1/2020; Day 0, 3 mg/kg",0
same,"Transform of Nasal lavage titer, Mean 2 (treated group)","SARS-CoV-2 WA1/2020; Day 0, 10 mg/kg",0.699
same,"Transform of Nasal lavage titer, Mean Diff. (Vehicle vs. treated)","SARS-CoV-2 WA1/2020; Day 0, 10 mg/kg",0
same,"Transform of Nasal lavage titer, Mean 2 (treated group)","SARS-CoV-2 WA1/2020; Day 0.5, 3 mg/kg",2.775
same,"Transform of Nasal lavage titer, Mean Diff. (Vehicle vs. treated)","SARS-CoV-2 WA1/2020; Day 0.5, 3 mg/kg",-0.18
same,"Transform of Nasal lavage titer, Mean 2 (treated group)","SARS-CoV-2 WA1/2020; Day 0.5, 10 mg/kg",2.413
same,"Transform of Nasal lavage titer, Mean Diff. (Vehicle vs. treated)","SARS-CoV-2 WA1/2020; Day 0.5, 10 mg/kg",0.1817
same,"Transform of Nasal lavage titer, Mean 2 (treated group)","SARS-CoV-2 WA1/2020; Day 1, 3 mg/kg",2.834
same,"Transform of Nasal lavage titer, Mean Diff. (Vehicle vs. treated)","SARS-CoV-2 WA1/2020; Day 1, 3 mg/kg",0.8732
same,"Transform of Nasal lavage titer, Mean 2 (treated group)","SARS-CoV-2 WA1/2020; Day 1, 10 mg/kg",2.126
same,"Transform of Nasal lavage titer, Mean Diff. (Vehicle vs. treated)","SARS-CoV-2 WA1/2020; Day 1, 10 mg/kg",1.581
same,"Transform of Nasal lavage titer, Mean 2 (treated group)","SARS-CoV-2 WA1/2020; Day 1.5, 3 mg/kg",3.42
